No end group written: not given here.
Tests used:
EMMPRIN promoter = EMMPRIN promoter luciferase reporter (pEMMPRIN-WT), transient transfection of cardiomyocytes; format: cell-based, mouse; conditions: for EMMPRIN promoter transcriptional activity: cardiomyocytes transiently transfected with pEMMPRIN-WT
Procedure: To clone the mouse EMMPRIN promoter, commercial chromosome BAC CH29-603O5 (which contains part of murine chromosome 10), from CHORI (Children's Hospital Oakland Research Institute) was used as a template in PCR reactions with the following oligonucleotides:
The resulting PCR fragment was cloned into the pGL3-Basic vector (Promega) at 5′ position to the luciferase reporter gene (hereinafter referred to as pEMMPRIN-WT).
The transient DNA transfection experiments were carried out by means of using the LIPOFECTAMINE (catatonic-lipid transfection reagent) 2000 reagent as previously described by the manufacturer. The luciferase content in the transfected cells was measured as previously described [Zaragoza C et al. Molecular pharmacology 2002; 62:927-935]. In summary, the cells were transiently transfected with 1 microgram of DNA and 10 μl of LIPOFECTAMINE (catatonic-lipid transfection reagent) 2000 in OPTIMEM culture medium (a modification of Eagle's Minimum Essential Media, buffered with HEPES and sodium bicarbonate, and supplemented with hypoxanthine, thymidine, sodium pyruvate, L-glutamine, trace elements, and growth factors) for 4 hours, after which time they were washed and incubated with fresh culture medium (MEM/10% FCS) for 16 hours. Furthermore, as a control, the cells were co-transfected with a plasmid containing the constitutively active promoter of cytomegalovirus fused with the R-Luciferase gene (Renilla), used as a control. Each sample was therefore evaluated for the content of both P-(firefly) and R-luciferase. […] of the gene product of the reporter gene of the co-transfected control plasmid. The results were normalized for R-Luciferase content.
To analyze in depth the repressive effect of NO on the EMMPRIN transcription, the first 1000 bps of the regulatory region of the EMMPRIN gene, fused to the luciferase reporter gene (pEMMPRIN-WT), were cloned.

iNOS = target: T1, iNOS (Mus musculus, UniProt P29477); assay: Coronary ischemia/reperfusion with pharmacological iNOS inhibition in iNOS wild-type mice; format: in vivo
T1 construct: tissue The Jackson Laboratories (mice); host or cells: living wild-type mice; heart after coronary ischemia/reperfusion
T1 sequence (P29477 1-1144): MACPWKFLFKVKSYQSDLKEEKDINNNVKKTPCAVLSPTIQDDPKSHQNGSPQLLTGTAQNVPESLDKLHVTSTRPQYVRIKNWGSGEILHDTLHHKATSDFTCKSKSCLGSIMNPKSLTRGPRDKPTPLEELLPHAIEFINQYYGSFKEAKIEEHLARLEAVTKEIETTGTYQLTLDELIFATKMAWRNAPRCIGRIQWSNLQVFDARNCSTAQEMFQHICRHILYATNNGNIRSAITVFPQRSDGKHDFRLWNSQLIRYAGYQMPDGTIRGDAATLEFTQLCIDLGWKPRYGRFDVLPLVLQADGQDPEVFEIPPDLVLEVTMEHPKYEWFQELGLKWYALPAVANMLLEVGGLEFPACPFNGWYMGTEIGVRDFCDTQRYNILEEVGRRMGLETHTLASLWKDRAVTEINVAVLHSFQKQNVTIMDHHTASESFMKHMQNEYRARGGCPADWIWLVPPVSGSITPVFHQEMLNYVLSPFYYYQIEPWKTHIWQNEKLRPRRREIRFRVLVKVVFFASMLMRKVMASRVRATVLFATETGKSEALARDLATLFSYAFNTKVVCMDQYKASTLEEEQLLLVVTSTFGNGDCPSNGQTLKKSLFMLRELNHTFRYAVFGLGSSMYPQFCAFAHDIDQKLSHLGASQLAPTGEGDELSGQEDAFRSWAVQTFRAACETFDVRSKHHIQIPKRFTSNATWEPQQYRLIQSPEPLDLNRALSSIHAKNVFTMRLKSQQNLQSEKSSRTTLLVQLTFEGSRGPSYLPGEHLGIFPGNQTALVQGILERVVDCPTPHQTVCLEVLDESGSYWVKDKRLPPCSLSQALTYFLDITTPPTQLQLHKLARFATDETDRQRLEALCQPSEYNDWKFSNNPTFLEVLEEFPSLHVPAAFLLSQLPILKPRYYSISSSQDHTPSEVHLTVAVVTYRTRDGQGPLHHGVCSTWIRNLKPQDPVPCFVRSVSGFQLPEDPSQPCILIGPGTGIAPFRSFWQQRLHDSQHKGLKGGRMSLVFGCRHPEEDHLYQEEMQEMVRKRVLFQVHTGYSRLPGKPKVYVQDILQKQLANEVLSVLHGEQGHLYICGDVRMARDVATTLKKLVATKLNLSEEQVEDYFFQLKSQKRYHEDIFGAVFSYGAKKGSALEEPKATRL
Procedure: Ischemia was induced by means of the coronary artery ligation in the manner detailed below: twelve week old mice were anesthetized intraperitoneally by means of using ketamine/xylazine (100 mg/kg/10 mg/kg, respectively), intubated with a 1 mm steel tube, and ventilated (2 ml, 80 pulses/minute). After this process, the chest of the mice was opened between the second and third ribs, being kept open by means of the aid of a retractor for mice. The pericardium was then opened to subsequently temporarily ligate the left coronary artery in a region close to its branch by means of using a 6-0 silk suture and for a period of 30 minutes. Evidence of coronary occlusion was clearly shown by means of the discoloration of the left ventricle after the arterial ligation. After 30 minutes, the ligation is removed, the chest closed and the skin sutured. Additionally, a group of control animals (sham) were included in the assays, in which the same method was carried out with the exception of the coronary artery occlusion. To inhibit iNOS in vivo, the iNOS wild-type mice were injected in the tail vein with 2 mg/kg/day of the pharmacological inhibitor of iNOS, 1400W, 30 minutes before ischemia and 24 hours after ischemia/reperfusion. […] To evaluate the effect of anti-EMMPRIN on the ischemic process/reperfusion, the antibodies were administered intravenously for four days before the surgical procedure, after which time the infarct size, cardiac function and EMMPRIN and MMP-9 expression were evaluated.
The heart of the animals was included in paraffin to subsequently obtain sections 4 microns thick as previously described [Tarin et al. mentioned ad supra]. The morphology of the heart was viewed by means of staining with hematoxylin and eosin, whereas collagen deposition was monitored by means of Masson's trichrome staining. […]
Additionally, nitration was detected by means of using anti-3-Nitrotyrosine in sections isolated from those same animals, confirming that the exogenously supplied NO was present in the hearts of the animals treated during the time of the experiment (FIG. 2D, right).

EMMPRIN mRNA [1] = assay: EMMPRIN mRNA, quantitative real-time RT-PCR in HL1 cardiomyocytes; format: cell-based, mouse; conditions: cardiomyocytes in culture, 100 μM DETA-NO
Procedure: (§1) (A) Quantitative real-time RT-PCR showing EMMPRIN expression in the hearts of wild-type and iNOS knockout animals after ischemia/reperfusion (n=3 in triplicate, mean±SD *p<0.05 vs iNOS null−). (B) Quantitative real-time RT-PCR showing EMMPRIN expression in HL1 cardiomyocytes in response to the exogenous administration of 100 μM DETA-NO (n=3, mean±SD *p<0.05). (C) Quantitative real-time RT-PCR showing EMMPRIN expression in RAW […] macrophages in culture in response to the exogenous administration of 100 μM of DETA-NO, endogenous NO production (50 μM LPS), or iNOS inhibition by means of adding 100 μM 1400W (n=3 mean±SD). (D) Stability assay of EMMPRIN mRNA in HL-1 cardiomyocytes (left) and in RAW […] macrophages (right) (n=3, mean±SD *p<0.05).
(§2) The HL1 cardiomyocyte cell line was donated by Dr. Antonio Bernad and cultured as described [Ruiz-Meana M et al. Cardiovascular research 2006; 71:715-724]. The RAW […] murine macrophage line was cultured as described [Tarin C et al. Arteriosclerosis, thrombosis, and vascular biology 2009; 29:27-32].

EMMPRIN mRNA [2] = assay: EMMPRIN mRNA, quantitative real-time RT-PCR in RAW macrophages; format: cell-based, murine; conditions: RAW macrophage cell line, 100 μM DETA-NO
Procedure: as §1, §2

EMMPRIN mRNA [3] = assay: EMMPRIN mRNA stability assay (actinomycin D) in HL-1 cardiomyocytes; format: cell-based, mouse; conditions: cardiomyocyte cell line, over time
Procedure: (§3) For this assay, cells were incubated in wells […] in diameter and incubated in the presence of 10 μM of actinomycin D for 16 hours, after which time the cells were treated with diethylenetriamine-NO (DETA-NO) at different times. The RNA of the different experiment times was isolated and both for EMMPRIN and for GAPDH (as a control), their mRNAs were evaluated by means of quantitative real-time RT-PCR.

EMMPRIN mRNA [4] = assay: EMMPRIN mRNA stability assay (actinomycin D) in RAW macrophages; format: cell-based, murine
Procedure: as §3

[5] = system: MAEC cells (mouse aortic endothelial cells); assay: Internalization of AP-9 nanoparticles by MAEC cells and co-localization with EMMPRIN; format: cell-based; conditions: for internalization into MAEC cells: overnight incubation
Procedure: The MAEC cells were incubated overnight with the AP-9 nanoparticles (NP-AP-9) (20 μg/ml) (right panel) or with non-loaded nanoparticles (NP-NT) (left panel). The MAEC cells were fixed, and EMMPRIN expression was detected using an anti-EMMPRIN antibody. Co-localization between the NP-AP-9 signal and the EMMPRIN signal was found in MAEC cells treated with NP-AP-9 (right panel), but this co-localization was not found in the control nanoparticles. The cores were stained with DAPI.
The MAEC cells were cultured in a black 96-well plate and incubated overnight with different concentrations of nanoparticles loaded with AP-9 (NP-AP9) or nanoparticles without AP-9 (NP-NT). Fluorescence was measured using an IVIS imaging system. The graph on the right represents the intensity of the fluorescence signal of the image on the left.
Nanoparticles containing AP-9 have therapeutic value, because EMMPRIN is inhibited and tissue damage due to proteolytic enzyme activation is reduced.

## CC(=O)NC(C(=O)O)C(C)(C)SN=O (racemic) [SNAP, S-Nitroso-N-acetyl-D,L-penicillamine]
EMMPRIN promoter
  EMMPRIN promoter transcriptional activity: results similar to those generated with DETA-NO

## Nc1nc2c(nc(Br)n2[C@@H]2O[C@@H]3COP(=O)(O)O[C@H]3[C@H]2O)c(=O)[nH]1 [8-Br-cGMP]
EMMPRIN promoter
  EMMPRIN promoter transcriptional activity: same effect as the NO donor

## CC(=N)NCc1cccc(CN)c1 [1400W]
iNOS; 1400W 2 mg/kg/day tail vein, vs control mice
  infarct size: significantly increase
iNOS; 1400W 2 mg/kg/day, WT 1400WC vs WT 1400W
  MMP-9 levels: increase
iNOS; 1400W 2 mg/kg/day, vs control mice
  EMMPRIN levels: increase

## NCCN(CCN)/[N+]([O-])=N/O [DETA-NO, diethylenetriamine-NO]
EMMPRIN mRNA [1]
  EMMPRIN mRNA levels: significantly reduced
EMMPRIN mRNA [2]
  EMMPRIN gene expression: did not induce a significant effect
EMMPRIN mRNA [3]
  EMMPRIN mRNA stability: significant reduction
EMMPRIN mRNA [4]
  EMMPRIN mRNA stability: no effect whatsoever

## O=c1c2nc(Br)n([C@@H]3O[C@@H]4CO[P@@](O)(=S)O[C@H]4[C@H]3O)c2nc2[nH]c(-c3ccccc3)cn12 [Rp-8-Br-PET-cGMPS]
EMMPRIN promoter
  EMMPRIN promoter transcriptional activity: significant increase
EMMPRIN promoter; cardiomyocytes, pEMMPRIN-WT, PET + NO (100 μM DETA-NO)
  EMMPRIN promoter activity in combination with NO: partially restoring the negative effect of NO

## NCCCNCCCCN(CCCN)/[N+]([O-])=N/O [Spermine-NONOate]
EMMPRIN promoter
  EMMPRIN promoter transcriptional activity: results similar to those generated with DETA-NO

## NP-AP-9: nanoparticles with iron oxide core, single lipid-PEG layer with fluorochrome, and AP-9 peptide bound to the surface (YKLPGHHHHYRP; also: bound to surface of iron oxide nanoparticles with lipid-PEG layer and fluorochrome, attachment site not given here)
[5]; 20 μg/ml overnight
  co-localization of nanoparticle signal with EMMPRIN signal: Co-localization
[5]; 96-well plate, different concentrations overnight, IVIS imaging
  dose dependence of internalization (fluorescence signal): dose-dependent manner
[5]
  internalization into MAEC cells: internalization
[5]; listed as Nanoparticles containing AP-9
  internalization into MAEC cells: could be internalized

From patent US9644019B2, “Compounds for treating cardiac damage after ischaemia/reperfusion” (priority 2010, dated 2017)
